The nature of data set [1]: Cell viability (cytotoxicity) assay, MTT. It is filed as cell-based. Conditions: mouse, Neuro2a neuroblastoma cells; Neuro2a cells, 24 h, MTT. The method, then:
(§1) The neuroblastoma cell line Neuro2a was purchased from ATCC. Cells were cultured in DMEM medium containing 10% fetal bovine serum (Biolot, St. Petersburg, Russia) and 1% penicillin/streptomycin (Invitrogen, Carlsbad, CA, USA). Cells were incubated at 37 °C in a humidified atmosphere containing 5% (v/v) CO2.
(§2) Cell suspension (1 × 10^3 cells/well) was incubated with different concentration of compounds for 24 h. After that, cell viability was determined using the MTT (3-(4,5-dimethylthiazol-2-yl)-2,5- diphenyltetrazolium bromide) method, according to the manufacturer’s instructions (Sigma-Aldrich, St. Louis, MO, USA). The results were presented as percent of control data, and concentration required for 50% inhibition of cell viability (IC50) was calculated.

Data set [2] concerns neuroblastoma Neuro2a cells. Kind of data set: Cell viability (cytotoxicity) assay, MTT. It is filed as cell-based. The conditions noted are these: up to 100 µM. The method, then:
as §1, §2

In data set [3] the test system is ROS formation in Neuro2a cells treated with 6-OHDA. Put plainly: ROS level analysis in 6-OHDA-treated cells. The conditions noted are these: 10 µM; 6-OHDA 50 µM, 30 min. It counts as cell-based. The method, then: (§3) Cell suspensions (1 × 10^3 cells/well) were incubated with compound solutions (10 µM) for 1 h. Then, 6-OHDA at a concentration of 50 µM was added in each well, and cells were incubated for 30 min. In other experiments, cells were incubated with PQ at a concentration of 500 µM for 30 min and 1 h. Cells incubated without 6-OHDA/PQ and compounds, and with 6-OHDA/PQ only, were used as positive and negative controls, respectively. To study ROS formation, 20 µL of 2,7-dichlorodihydrofluorescein diacetate solution (Molecular Probes, Eugene, OR, USA) was added to each well, such that the final concentration was […], and the microplate was incubated for an additional 10 min at 37 °C. The intensity of dichlorofluorescein fluorescence was measured with plate reader PHERAstar FS (BMG Labtech, Ortenberg, Germany) at λex = 485 nm, and λem = 518 nm. The data were processed by MARS Data Analysis v. 3.01R2 (BMG Labtech, Ortenberg, Germany). The results were presented as a percentage of positive control data.

Data set [4] deals with ROS formation in Neuro2a cells treated with paraquat (PQ). Put plainly: ROS level analysis in PQ-treated cells. It counts as cell-based. The conditions noted are these: added 1 h before PQ (500 µM). The procedure:
as §3, with “Cell suspensions (1 × 10^3 cells/well) were incubated with compound solutions (10 µM) for 1 h.” left out

Data set [5] deals with Neuro2a cells treated with PQ. Kind of data set: Paraquat-induced in vitro model of Parkinson's disease, cell viability (MTT). It is filed as cell-based. The conditions noted are these: added 1 h before PQ (500 µM). The method, then: Neuroblastoma Neuro2a line cells (1 × 10^3 cells/well) were treated with compounds at concentrations of 1 and 10 µM for 1 h, and then 500 µM of paraquat (Sigma-Aldrich, St. Louis, MO, USA) was added to the neuroblastoma cell suspension. Cells incubated without paraquat and compounds, and with paraquat only, were used as positive and negative controls, respectively. The viability of cells was measured after 24 h using the MTT method. The results were presented as percent of positive control data.

For data set [6] the following is noted: cited from earlier work.

The values that follow come from paper PMC6265791, “Neuroprotective Activity of Some Marine Fungal Metabolites in the 6-Hydroxydopamin- and Paraquat-Induced Parkinson’s Disease Models” (Marine Drugs, 2018).

“Also recorded” adds a separate entry of the source.

Consider `COc1cc(O)c(C)c2c1COC(C)C2` (stereo not drawn) [Compound 3, 8-methoxy-3,5-dimethylisochroman-6-ol], for which the IC50 at 24 h in data set [1] is more than 100 µM. Moreover, in data set [2], the “Cytotoxicity against Neuro2a cells” value was “not cytotoxic; also recorded: non-cytotoxic”. Moreover, in data set [3], the “Reduction of ROS level in 6-OHDA-treated cells” value was found to be 45%. In addition, the “Effect on ROS formation in PQ-treated cells” value in data set [4] is recorded as “reduced ROS formation”. In data set [5], the “Effect on viability of PQ-treated cells” value was “did not exhibit any protective effect”. Moreover, the “DPPH Radical Scavenging % at 100 µM” value in data set [6] was 62.0 ± 4.6 [16] %.

What is called IC50 is the concentration that gives 50% inhibition. A lower IC50 goes with greater potency.
